System in the first data set: not listed separately
Briefly: in vitro. The conditions noted are these: human, wi-38 cells; read-out: % cell growth W1-38 at 10uM. Also noted: cytotoxicity, per cent cell growth of WI-38 fibroblasts. The protocol:
(§1) Independent of the effect of any antiparasitic potential of compounds, they were evaluated using a panel of early-toxicity assays comprising cytotoxicity (A549, human lung adenocarcinoma epithelial cell line and WI-38, human lung fibroblasts), mitochondrial toxicity (786-O, human renal carcinoma cell line), hERG inhibition,[31] cytochrome P450 inhibition (CYP1A2, CYP2C9, CYP2C19, CYP2D6, and CYP3A4),[31] and Aurora B kinase inhibition. […] For the two compounds active against TbPTR1 (4m and 4o), IC50 against hERG, cytochrome P450, and mitochondrial toxicity were determined (reported in Supporting Information). We observed that the dose of compounds 4m, 4o, 4c, and 3k was 4 μM in the potentiation assays. […] In the case of hERG, CYP2D6, CYP2A9, CYP2C19, and mitochondrial toxicity, there is a selectivity index of around 3–4 fold, thus showing an acceptable profile.  Figure 10 Summary heat map of the in vitro assays to determine possible liability issues for all synthesized compounds. Assays were performed to assess inhibition of hERG and five CYP isoforms (1A2, 2C9, 2C19, 2D6, and 3A4), growth inhibition of A549 and W1-38 cell lines, and mitochondrial toxicity at 10 μM. The hDHFR inhibition was determined at 100 μM. The data, expressed as percentage values, were organized by adopting a color code for rapid and intuitive visualization. The ideal compound should have all tiles blue, indicating a safe toxicological profile for progressing into the development pipeline. The cells are colored from blue (100% of cell growth at the tested concentration) to red (0% of cell growth at the tested concentration) for A549 and W1-38 and from blue (0% of inhibitory activity at the tested concentration) to red (100% of inhibitory activity at the tested concentration) for CYP isoforms, hERG, hDHFR, and mitochondrial toxicity.
T3 sequence (Q12809 whole entry): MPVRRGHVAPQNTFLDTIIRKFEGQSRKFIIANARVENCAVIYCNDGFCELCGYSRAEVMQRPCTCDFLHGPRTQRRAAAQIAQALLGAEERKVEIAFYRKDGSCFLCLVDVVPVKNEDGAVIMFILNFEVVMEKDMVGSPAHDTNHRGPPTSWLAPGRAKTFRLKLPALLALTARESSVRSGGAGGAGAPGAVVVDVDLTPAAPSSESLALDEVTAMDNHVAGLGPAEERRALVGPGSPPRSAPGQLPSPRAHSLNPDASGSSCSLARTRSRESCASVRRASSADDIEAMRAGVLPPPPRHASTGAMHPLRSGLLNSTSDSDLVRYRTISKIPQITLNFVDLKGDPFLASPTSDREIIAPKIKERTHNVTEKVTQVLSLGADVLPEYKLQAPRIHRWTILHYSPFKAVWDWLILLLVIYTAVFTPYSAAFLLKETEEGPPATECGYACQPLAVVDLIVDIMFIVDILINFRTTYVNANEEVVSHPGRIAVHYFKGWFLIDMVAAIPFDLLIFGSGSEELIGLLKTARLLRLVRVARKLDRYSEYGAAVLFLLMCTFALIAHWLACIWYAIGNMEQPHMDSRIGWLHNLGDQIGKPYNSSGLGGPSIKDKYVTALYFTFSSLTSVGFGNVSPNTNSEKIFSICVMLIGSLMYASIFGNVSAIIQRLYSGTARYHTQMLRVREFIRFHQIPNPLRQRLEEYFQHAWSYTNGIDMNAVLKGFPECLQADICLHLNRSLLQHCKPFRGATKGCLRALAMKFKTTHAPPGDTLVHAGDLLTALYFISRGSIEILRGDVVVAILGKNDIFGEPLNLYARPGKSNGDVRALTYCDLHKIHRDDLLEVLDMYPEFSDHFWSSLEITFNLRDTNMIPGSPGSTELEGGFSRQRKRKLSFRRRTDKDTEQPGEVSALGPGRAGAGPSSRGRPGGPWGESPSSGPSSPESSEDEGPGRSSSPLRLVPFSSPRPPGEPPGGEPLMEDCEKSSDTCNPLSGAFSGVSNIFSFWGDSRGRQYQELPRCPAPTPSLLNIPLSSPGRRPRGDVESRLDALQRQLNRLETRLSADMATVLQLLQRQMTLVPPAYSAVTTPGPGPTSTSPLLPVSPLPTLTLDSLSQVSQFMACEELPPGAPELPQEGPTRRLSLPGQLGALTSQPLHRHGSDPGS
Sequence of CYP2C9 (P11712 whole entry): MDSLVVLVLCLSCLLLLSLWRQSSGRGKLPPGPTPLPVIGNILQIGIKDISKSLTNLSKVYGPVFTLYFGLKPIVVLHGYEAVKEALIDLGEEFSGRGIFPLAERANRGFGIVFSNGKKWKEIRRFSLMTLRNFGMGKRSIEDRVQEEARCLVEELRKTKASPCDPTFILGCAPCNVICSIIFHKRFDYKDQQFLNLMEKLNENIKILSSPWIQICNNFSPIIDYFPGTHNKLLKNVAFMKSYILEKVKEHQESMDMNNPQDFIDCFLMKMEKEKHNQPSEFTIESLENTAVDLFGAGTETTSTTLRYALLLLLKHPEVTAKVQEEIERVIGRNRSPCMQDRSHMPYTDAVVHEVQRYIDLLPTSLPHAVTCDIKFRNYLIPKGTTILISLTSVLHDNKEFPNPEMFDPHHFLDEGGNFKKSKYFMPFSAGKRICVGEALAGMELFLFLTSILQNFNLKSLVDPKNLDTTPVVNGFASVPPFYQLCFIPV
Sequence of CYP3A4 (P08684 whole entry, canonical isoform): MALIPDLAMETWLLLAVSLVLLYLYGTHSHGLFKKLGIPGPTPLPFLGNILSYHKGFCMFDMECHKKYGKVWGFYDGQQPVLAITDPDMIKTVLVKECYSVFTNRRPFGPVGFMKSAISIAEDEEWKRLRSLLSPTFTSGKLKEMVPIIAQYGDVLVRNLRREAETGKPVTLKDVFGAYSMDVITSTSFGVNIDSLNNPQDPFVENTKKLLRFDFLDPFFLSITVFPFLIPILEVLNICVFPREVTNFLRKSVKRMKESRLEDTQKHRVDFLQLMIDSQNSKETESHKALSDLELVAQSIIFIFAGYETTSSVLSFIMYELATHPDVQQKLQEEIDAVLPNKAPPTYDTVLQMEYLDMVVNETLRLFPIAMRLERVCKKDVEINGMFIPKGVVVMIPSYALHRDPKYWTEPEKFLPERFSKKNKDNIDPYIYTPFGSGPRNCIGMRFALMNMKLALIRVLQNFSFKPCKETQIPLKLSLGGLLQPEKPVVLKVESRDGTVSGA
For the molecule `COCCCNc1nnc(N)s1` [4s, N2G(3Gmethoxypropyl)G1,3,4GthiadiazoleG2,5Gdiamine], the viability at 10 µM was found to be 89.6 ± 8.9%.

Turning to `Cc1ccc(CNc2nnc(N)s2)cc1` [4l], the viability at 10 µM came out at 106 ± 13.2%.

For the molecule `Nc1nnc(-c2ccccc2)s1` [1a], the viability at 10 µM was determined as 101 ± 10.3%.

With `CN(C)C(=O)NCc1ccc(-c2nnc(N)s2)cc1` [1p], the viability at 10 µM is 118 ± 24.8%.

Take `Nc1nnc(Cc2cccs2)s1` [3d]: the viability at 10 µM was 105 ± 20.6%.

A further data set relates to 786-O. Kind of data set: cells. Also noted: mitochondrial toxicity in 786-O renal carcinoma cells. The conditions noted are these: Homo sapiens, 786-0; mitochondrial toxicity. The protocol: as §1
As usually defined, the inhibition is the relative decrease from the control value, in per cent. Turning to `COCCCNc1nnc(N)s1` [4s, N2G(3Gmethoxypropyl)G1,3,4GthiadiazoleG2,5Gdiamine], the inhibition at 10 µM was -0.9 ± 11.9%.

Take `Cc1ccc(CNc2nnc(N)s2)cc1` [4l]: the inhibition at 10 µM is -5.3 ± 14.7%.

With `Nc1nnc(-c2ccccc2)s1` [1a], the inhibition at 10 µM came out at 0.9 ± 10.6%.

Take `CN(C)C(=O)NCc1ccc(-c2nnc(N)s2)cc1` [1p]: the inhibition at 10 µM turned out to be 11.6 ± 10.1%.

With `Nc1nnc(Cc2cccs2)s1` [3d], the inhibition at 10 µM is -2.9 ± 14.3%.

The test system of a further data set is T. b. brucei Lister 427 bloodstream forms. Briefly: In vitro activity against T. brucei (HTS SYBR Green I growth inhibition assay). The conditions noted are these: Trypanosoma brucei, 50 μM; standard deviation within ±10% of the value; read-out: % Inhibition T. brucei at 50 μM. The class given is cell-based, Trypanosoma brucei brucei.
For `COCCCNc1nnc(N)s1` [4s, N2G(3Gmethoxypropyl)G1,3,4GthiadiazoleG2,5Gdiamine], the inhibition at 50 µM is below 0%.

For the molecule `Cc1ccc(CNc2nnc(N)s2)cc1` [4l], the inhibition at 50 µM came to 10.8%.

With `Nc1nnc(-c2ccccc2)s1` [1a], the inhibition at 50 µM was found to be 21%.

On to `CN(C)C(=O)NCc1ccc(-c2nnc(N)s2)cc1` [1p], for which the inhibition at 50 µM was below 0%.

Regarding `Nc1nnc(Cc2cccs2)s1` [3d], the inhibition at 50 µM amounted to 7.5%.

System in the next data set: not listed separately
Kind of data set: in vitro. The arrangement: cytotoxicity, per cent cell growth of A549 cells. The conditions noted are these: human, a549 cells; read-out: % cell growth A549 at 10uM. As to the method: as §1
Take `COCCCNc1nnc(N)s1` [4s, N2G(3Gmethoxypropyl)G1,3,4GthiadiazoleG2,5Gdiamine]: the viability at 10 µM worked out at 101 ± 11.2%.

For the molecule `Cc1ccc(CNc2nnc(N)s2)cc1` [4l], the viability at 10 µM was 104.6 ± 0.5%.

For the molecule `Nc1nnc(-c2ccccc2)s1` [1a], the viability at 10 µM worked out at 119 ± 12.5%.

With `CN(C)C(=O)NCc1ccc(-c2nnc(N)s2)cc1` [1p], the viability at 10 µM came out at 108.7 ± 0.45%.

For the molecule `Nc1nnc(Cc2cccs2)s1` [3d], the viability at 10 µM was 112 ± 4.9%.

A further data set addresses T1, TbPTR1 (Trypanosoma brucei brucei, UniProt O76290).
T1 construct: made in house
T1 sequence (O76290 1-268): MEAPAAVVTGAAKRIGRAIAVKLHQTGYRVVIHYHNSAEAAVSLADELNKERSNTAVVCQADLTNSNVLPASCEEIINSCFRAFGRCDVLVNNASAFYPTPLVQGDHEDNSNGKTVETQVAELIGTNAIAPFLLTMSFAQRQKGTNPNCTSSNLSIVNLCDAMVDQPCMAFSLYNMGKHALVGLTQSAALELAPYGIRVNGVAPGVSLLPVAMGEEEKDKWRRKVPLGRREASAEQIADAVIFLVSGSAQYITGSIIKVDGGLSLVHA
Kind of data set: biochemical. The conditions noted are these: 50 μM compound; read-out: % Inhibition TbPTR1 at 50 μM.
With `COCCCNc1nnc(N)s1` [4s, N2G(3Gmethoxypropyl)G1,3,4GthiadiazoleG2,5Gdiamine], the inhibition at 50 µM stood at 11.8 ± 0.3%.

With `Cc1ccc(CNc2nnc(N)s2)cc1` [4l], the inhibition at 50 µM was determined as 18.6 ± 0.8%.

Take `Nc1nnc(-c2ccccc2)s1` [1a]: the inhibition at 50 µM came out at 25.3 ± 1.2%.

`CN(C)C(=O)NCc1ccc(-c2nnc(N)s2)cc1` [1p]: the inhibition at 50 µM came to 5.3 ± 0.9%.

As for `Nc1nnc(Cc2cccs2)s1` [3d], the inhibition at 50 µM amounted to 18.5 ± 0.6%.

Another data set addresses CYP2C9 (Homo sapiens, UniProt P11712). Kind of data set: in vitro.
Settings: not given
The arrangement: cytochrome P450 isoform inhibition liability assay. The protocol:
as §1
With `COCCCNc1nnc(N)s1` [4s, N2G(3Gmethoxypropyl)G1,3,4GthiadiazoleG2,5Gdiamine], the inhibition at 10 µM was -15.5 ± 7.2%.

For the molecule `Cc1ccc(CNc2nnc(N)s2)cc1` [4l], the inhibition at 10 µM was found to be 14.2 ± 3.9%.

`Nc1nnc(-c2ccccc2)s1` [1a]: the inhibition at 10 µM was found to be 3.9 ± 2.9%.

As to `CN(C)C(=O)NCc1ccc(-c2nnc(N)s2)cc1` [1p], the inhibition at 10 µM worked out at 36.6 ± 0.6%.

Turning to `Nc1nnc(Cc2cccs2)s1` [3d], the inhibition at 10 µM came out at 16 ± 2%.

For the next data set, the target named is T2, CYP1A2 (Homo sapiens, UniProt P05177).
T2 sequence (P05177 1-516): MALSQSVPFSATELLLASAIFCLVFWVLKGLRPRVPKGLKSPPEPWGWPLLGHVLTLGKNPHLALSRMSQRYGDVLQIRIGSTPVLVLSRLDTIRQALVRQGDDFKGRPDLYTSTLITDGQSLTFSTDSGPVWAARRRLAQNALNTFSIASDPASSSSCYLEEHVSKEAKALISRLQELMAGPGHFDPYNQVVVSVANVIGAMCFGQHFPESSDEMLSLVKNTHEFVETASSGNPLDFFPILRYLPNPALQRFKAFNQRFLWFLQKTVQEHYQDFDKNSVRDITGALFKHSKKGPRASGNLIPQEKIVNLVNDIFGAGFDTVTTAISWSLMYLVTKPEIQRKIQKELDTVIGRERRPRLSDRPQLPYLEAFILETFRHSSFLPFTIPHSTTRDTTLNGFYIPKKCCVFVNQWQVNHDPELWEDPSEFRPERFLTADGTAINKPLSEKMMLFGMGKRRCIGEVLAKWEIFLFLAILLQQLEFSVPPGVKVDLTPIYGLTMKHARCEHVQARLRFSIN
Kind of data set: in vitro. Also noted: cytochrome P450 isoform inhibition liability assay.
Settings: not given
As to the method: as §1
For the molecule `COCCCNc1nnc(N)s1` [4s, N2G(3Gmethoxypropyl)G1,3,4GthiadiazoleG2,5Gdiamine], the inhibition at 10 µM is -14.8 ± 3.7%.

Consider `Cc1ccc(CNc2nnc(N)s2)cc1` [4l], for which the inhibition at 10 µM came out at 17.3 ± 3.2%.

Take `Nc1nnc(-c2ccccc2)s1` [1a]: the inhibition at 10 µM turned out to be 24.8 ± 1.8%.

`CN(C)C(=O)NCc1ccc(-c2nnc(N)s2)cc1` [1p]: the inhibition at 10 µM was determined as 20.9 ± 3.3%.

For the molecule `Nc1nnc(Cc2cccs2)s1` [3d], the inhibition at 10 µM was found to be 21.7 ± 3.4%.

The target in the next data set is CYP2C19 (Homo sapiens, UniProt P33261). Briefly: in vitro. The arrangement: cytochrome P450 isoform inhibition liability assay.
Sequence of CYP2C19 (P33261 whole entry, canonical isoform): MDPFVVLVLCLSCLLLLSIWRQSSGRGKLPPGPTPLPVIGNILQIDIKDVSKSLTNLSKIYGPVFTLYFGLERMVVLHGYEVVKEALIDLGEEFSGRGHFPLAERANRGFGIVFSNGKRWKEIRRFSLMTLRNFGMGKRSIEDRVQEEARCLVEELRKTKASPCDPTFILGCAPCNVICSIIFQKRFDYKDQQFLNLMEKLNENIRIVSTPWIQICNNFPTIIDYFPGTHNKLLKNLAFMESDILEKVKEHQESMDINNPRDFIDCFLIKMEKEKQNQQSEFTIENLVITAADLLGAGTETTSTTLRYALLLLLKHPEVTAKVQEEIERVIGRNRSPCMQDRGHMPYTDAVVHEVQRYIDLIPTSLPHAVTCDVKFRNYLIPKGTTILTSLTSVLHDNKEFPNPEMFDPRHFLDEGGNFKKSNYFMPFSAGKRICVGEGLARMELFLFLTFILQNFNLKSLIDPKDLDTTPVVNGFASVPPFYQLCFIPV
Settings: not given
The protocol: as §1
For `COCCCNc1nnc(N)s1` [4s, N2G(3Gmethoxypropyl)G1,3,4GthiadiazoleG2,5Gdiamine], the inhibition at 10 µM was -20 ± 13.9%.

Regarding `Cc1ccc(CNc2nnc(N)s2)cc1` [4l], the inhibition at 10 µM is -6.7 ± 11.4%.

Turning to `Nc1nnc(-c2ccccc2)s1` [1a], the inhibition at 10 µM came to 76.9 ± 3.2%.

Regarding `CN(C)C(=O)NCc1ccc(-c2nnc(N)s2)cc1` [1p], the inhibition at 10 µM worked out at 9.4 ± 6.5%.

Turning to `Nc1nnc(Cc2cccs2)s1` [3d], the inhibition at 10 µM is -17.4 ± 7.4%.

Another data set addresses CYP3A4 (Homo sapiens, UniProt P08684). Kind of data set: in vitro. Also noted: cytochrome P450 isoform inhibition liability assay.
Settings: not given
The protocol: as §1
On to `COCCCNc1nnc(N)s1` [4s, N2G(3Gmethoxypropyl)G1,3,4GthiadiazoleG2,5Gdiamine], for which the inhibition at 10 µM is -37.5 ± 15.3%.

As for `Cc1ccc(CNc2nnc(N)s2)cc1` [4l], the inhibition at 10 µM was 26.9 ± 4.7%.

Consider `Nc1nnc(-c2ccccc2)s1` [1a], for which the inhibition at 10 µM came to 82.6 ± 1.6%.

`CN(C)C(=O)NCc1ccc(-c2nnc(N)s2)cc1` [1p]: the inhibition at 10 µM was 15.1 ± 9.9%.

Regarding `Nc1nnc(Cc2cccs2)s1` [3d], the inhibition at 10 µM is 17.2 ± 4.1%.

For another data set, the target named is CYP2D6 (Homo sapiens, UniProt P10635). Kind of data set: in vitro.
Sequence of CYP2D6 (P10635 whole entry): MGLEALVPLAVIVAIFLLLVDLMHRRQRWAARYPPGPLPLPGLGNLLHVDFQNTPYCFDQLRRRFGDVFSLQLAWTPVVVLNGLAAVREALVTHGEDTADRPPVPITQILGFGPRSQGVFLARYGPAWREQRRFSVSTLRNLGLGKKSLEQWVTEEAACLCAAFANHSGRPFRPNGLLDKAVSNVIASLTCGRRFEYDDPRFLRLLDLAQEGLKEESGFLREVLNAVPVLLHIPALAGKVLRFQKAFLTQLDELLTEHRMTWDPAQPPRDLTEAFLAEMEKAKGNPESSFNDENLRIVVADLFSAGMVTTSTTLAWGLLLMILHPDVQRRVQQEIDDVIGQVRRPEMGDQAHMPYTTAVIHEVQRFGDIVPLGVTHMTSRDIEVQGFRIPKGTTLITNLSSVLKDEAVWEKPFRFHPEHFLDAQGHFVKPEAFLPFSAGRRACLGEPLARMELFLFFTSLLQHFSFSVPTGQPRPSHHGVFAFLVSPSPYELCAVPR
Settings: not given
Also noted: cytochrome P450 isoform inhibition liability assay. As to the method: as §1
For the molecule `COCCCNc1nnc(N)s1` [4s, N2G(3Gmethoxypropyl)G1,3,4GthiadiazoleG2,5Gdiamine], the inhibition at 10 µM is -13.5 ± 10.7%.

For `Cc1ccc(CNc2nnc(N)s2)cc1` [4l], the inhibition at 10 µM worked out at 98.7 ± 1%.

In the case of `Nc1nnc(-c2ccccc2)s1` [1a], the inhibition at 10 µM is -8.5 ± 2.2%.

For `CN(C)C(=O)NCc1ccc(-c2nnc(N)s2)cc1` [1p], the inhibition at 10 µM was determined as 18.5 ± 2.7%.

Turning to `Nc1nnc(Cc2cccs2)s1` [3d], the inhibition at 10 µM is 29.6 ± 4%.

The next data set has as its target T3, hERG (Homo sapiens, UniProt Q12809).
T3 construct: gene KCNH2
Test: not given
Settings: not given
The arrangement: hERG inhibition liability assay. The protocol:
as §1
As for `COCCCNc1nnc(N)s1` [4s, N2G(3Gmethoxypropyl)G1,3,4GthiadiazoleG2,5Gdiamine], the inhibition at 10 µM turned out to be 3.9 ± 5.4%.

Turning to `Cc1ccc(CNc2nnc(N)s2)cc1` [4l], the inhibition at 10 µM came out at 77.4 ± 1.5%.

With `Nc1nnc(-c2ccccc2)s1` [1a], the inhibition at 10 µM is -3.3 ± 1.9%.

As for `CN(C)C(=O)NCc1ccc(-c2nnc(N)s2)cc1` [1p], the inhibition at 10 µM worked out at 6.4 ± 1.9%.

With `Nc1nnc(Cc2cccs2)s1` [3d], the inhibition at 10 µM was found to be 16 ± 8.7%.

The values above are taken from PMC5623949, “Exploiting the 2-Amino-1,3,4-thiadiazole Scaffold To Inhibit Trypanosoma brucei Pteridine Reductase in Support of Early-Stage Drug Discovery” (ACS Omega, 2017).
